According to patent publication US20240360113A1, “AMINOARYL-INTEGRIN AGONISTS COMPOUNDS” (Texas Heart Institute, priority 2021, published 2024):

Experiments:
α4β1/VCAM-1 = biological target: T1, α4β1/VCAM-1 (Homo sapiens, UniProt P05556+P13612); test: Static cell adhesion assay, Jurkat cells on VCAM-1 (VLA-4 agonist activity); assay type: cell-based; conditions: for Group against VCAM: EC50 relative to THI0349 (average 11 uM) run on the same plate, Jurkat cells, 50% FBS; for EC50: assay conditions reported herein, in the presence of serum, read-out: EC50 against VCAM
T1 construct: The Jurkat (VCAM-1 assays) and HSB (ICAM-1 assays) cell lines were obtained from American Type Culture Collection; endogenous in cells; host or cells: Jurkat (ATCC)
Method: (§1) For in vitro cell adhesion assays, compounds were dissolved in DMSO to make a series of stock solutions such that a 1:100 dilution in assay buffer would yield the desired final working concentrations in 1% DMSO (vehicle). Human VCAM-1 and ICAM-1 were purchased from R&D Systems (Minneapolis, MN). The Jurkat (VCAM-1 assays) and HSB (ICAM-1 assays) cell lines were obtained from American Type Culture Collection (Manassas, VA) and were maintained in recommended culture media.
(§2) Assays were performed as previously described in Vanderslice et al., (2010), Biochem Biophys Res Commun 400, 619-624; and Vanderslice et al., (2013) J Biol Chem 288, 19414-19428. VCAM-1 or ICAM-1 ligand in 50 μL of 50 mM Tris-HCl (pH 7.4), 150 mM NaCl, (TBS) was added to wells of a 96-well plate and allowed to coat overnight at 4° C. To maximize the window to evaluate agonist activity, a sub-optimal coating concentration of ligand was used, typically 0.5 and 5 μg/mL in 50 μL TBS for VCAM-1 and ICAM-1 respectively. This ligand concentration corresponded approximately to that which would yield <5% adhesion as determined by dose-response curves. Briefly, 2×10^6 cells were labeled for 30 minutes with calcein-AM (Molecular Probes), washed, resuspended in binding buffer, and added to triplicate wells of ligand-coated plates (2×10^5 cells/well) that had been blocked with 2% BSA. After a 30-minute incubation at 37° C., the plates were washed 3 times with binding buffer, the adherent cells were lysed, and fluorescence was measured on a Tecan Safire^2 plate reader. The binding buffer was PBS with 1 mM MgCl2, 50% FBS for α4β1/VCAM-1 assays and PBS with 2 mM MgCl2, 5 mM EGTA, 50% FBS for αLβ2/ICAM-1 assays. EC50 is defined as the concentration of compound required to achieve 50% of the maximal response.

αLβ2/ICAM-1 = biological target: T2, αLβ2/ICAM-1 (Homo sapiens, UniProt P05107+P20701); test: Static cell adhesion assay, HSB cells on ICAM-1 (LFA-1; LAD); assay type: cell-based; conditions: RFU of compound / RFU of THI0349, both at the same concentration
T2 construct: The Jurkat (VCAM-1 assays) and HSB (ICAM-1 assays) cell lines were obtained from American Type Culture Collection; endogenous in cells; host or cells: HSB (ATCC)
Method: as §1, §2
In relation to LAD (Leukocyte Adhesion Deficiency), LFA-1 ratios are determined by dividing the relative fluorescence units (RFU) of each compound at a concentration of 3 μM over that of the reference standard of THI0349, also at 3 μM, (RFU Compound/RFU of THI0349). Log Ps were calculated by either Chemdraw® version 12 (CambridgeSoft) or ACD/Chemsketch® (ACD/Labs).

T1 sequence (P13612 34-1032): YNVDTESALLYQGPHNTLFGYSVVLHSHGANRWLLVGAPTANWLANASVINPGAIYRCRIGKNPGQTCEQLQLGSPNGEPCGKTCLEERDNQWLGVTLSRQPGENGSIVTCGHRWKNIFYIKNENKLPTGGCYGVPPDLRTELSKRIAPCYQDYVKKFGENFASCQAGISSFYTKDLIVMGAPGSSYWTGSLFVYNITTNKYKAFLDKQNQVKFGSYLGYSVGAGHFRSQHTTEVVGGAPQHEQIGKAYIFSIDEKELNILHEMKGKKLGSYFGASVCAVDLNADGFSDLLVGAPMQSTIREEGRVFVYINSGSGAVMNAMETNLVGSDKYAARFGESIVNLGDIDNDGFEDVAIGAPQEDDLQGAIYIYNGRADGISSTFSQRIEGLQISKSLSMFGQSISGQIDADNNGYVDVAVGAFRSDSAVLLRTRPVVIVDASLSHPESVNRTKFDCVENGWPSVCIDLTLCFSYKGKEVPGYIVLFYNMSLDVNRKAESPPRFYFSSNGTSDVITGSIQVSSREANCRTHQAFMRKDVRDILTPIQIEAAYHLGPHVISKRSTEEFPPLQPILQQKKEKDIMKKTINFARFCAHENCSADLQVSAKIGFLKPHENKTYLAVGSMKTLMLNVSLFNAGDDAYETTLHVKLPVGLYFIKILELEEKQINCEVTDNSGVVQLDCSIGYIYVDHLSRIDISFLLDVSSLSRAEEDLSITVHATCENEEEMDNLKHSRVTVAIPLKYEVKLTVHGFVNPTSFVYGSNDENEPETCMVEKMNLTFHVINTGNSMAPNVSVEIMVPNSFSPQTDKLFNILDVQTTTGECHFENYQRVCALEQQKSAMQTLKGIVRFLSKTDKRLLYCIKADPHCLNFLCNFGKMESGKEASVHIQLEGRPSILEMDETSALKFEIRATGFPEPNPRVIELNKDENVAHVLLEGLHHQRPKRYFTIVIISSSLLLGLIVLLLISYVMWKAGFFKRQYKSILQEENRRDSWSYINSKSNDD
T1 sequence (P05556 21-798): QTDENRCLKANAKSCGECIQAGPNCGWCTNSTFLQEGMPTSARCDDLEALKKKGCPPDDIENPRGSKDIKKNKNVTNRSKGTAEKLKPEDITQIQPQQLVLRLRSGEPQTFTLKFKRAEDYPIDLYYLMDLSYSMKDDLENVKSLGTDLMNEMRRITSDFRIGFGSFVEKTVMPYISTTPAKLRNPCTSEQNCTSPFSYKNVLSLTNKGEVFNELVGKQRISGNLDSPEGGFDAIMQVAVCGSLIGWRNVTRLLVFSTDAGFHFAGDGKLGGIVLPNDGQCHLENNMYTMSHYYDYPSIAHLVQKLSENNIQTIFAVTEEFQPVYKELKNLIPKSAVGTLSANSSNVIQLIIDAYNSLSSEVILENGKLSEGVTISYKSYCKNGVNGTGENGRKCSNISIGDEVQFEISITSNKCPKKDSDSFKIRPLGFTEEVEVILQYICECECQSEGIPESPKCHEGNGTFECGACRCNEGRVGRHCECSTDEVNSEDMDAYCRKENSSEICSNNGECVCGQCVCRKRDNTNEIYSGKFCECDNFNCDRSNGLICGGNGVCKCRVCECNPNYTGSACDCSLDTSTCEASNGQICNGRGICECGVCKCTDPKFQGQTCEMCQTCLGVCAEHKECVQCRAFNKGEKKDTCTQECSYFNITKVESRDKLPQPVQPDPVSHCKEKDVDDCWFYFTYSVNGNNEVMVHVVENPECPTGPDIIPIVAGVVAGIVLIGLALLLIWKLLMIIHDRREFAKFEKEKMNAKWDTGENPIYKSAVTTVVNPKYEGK
T2 sequence (P20701 26-1170): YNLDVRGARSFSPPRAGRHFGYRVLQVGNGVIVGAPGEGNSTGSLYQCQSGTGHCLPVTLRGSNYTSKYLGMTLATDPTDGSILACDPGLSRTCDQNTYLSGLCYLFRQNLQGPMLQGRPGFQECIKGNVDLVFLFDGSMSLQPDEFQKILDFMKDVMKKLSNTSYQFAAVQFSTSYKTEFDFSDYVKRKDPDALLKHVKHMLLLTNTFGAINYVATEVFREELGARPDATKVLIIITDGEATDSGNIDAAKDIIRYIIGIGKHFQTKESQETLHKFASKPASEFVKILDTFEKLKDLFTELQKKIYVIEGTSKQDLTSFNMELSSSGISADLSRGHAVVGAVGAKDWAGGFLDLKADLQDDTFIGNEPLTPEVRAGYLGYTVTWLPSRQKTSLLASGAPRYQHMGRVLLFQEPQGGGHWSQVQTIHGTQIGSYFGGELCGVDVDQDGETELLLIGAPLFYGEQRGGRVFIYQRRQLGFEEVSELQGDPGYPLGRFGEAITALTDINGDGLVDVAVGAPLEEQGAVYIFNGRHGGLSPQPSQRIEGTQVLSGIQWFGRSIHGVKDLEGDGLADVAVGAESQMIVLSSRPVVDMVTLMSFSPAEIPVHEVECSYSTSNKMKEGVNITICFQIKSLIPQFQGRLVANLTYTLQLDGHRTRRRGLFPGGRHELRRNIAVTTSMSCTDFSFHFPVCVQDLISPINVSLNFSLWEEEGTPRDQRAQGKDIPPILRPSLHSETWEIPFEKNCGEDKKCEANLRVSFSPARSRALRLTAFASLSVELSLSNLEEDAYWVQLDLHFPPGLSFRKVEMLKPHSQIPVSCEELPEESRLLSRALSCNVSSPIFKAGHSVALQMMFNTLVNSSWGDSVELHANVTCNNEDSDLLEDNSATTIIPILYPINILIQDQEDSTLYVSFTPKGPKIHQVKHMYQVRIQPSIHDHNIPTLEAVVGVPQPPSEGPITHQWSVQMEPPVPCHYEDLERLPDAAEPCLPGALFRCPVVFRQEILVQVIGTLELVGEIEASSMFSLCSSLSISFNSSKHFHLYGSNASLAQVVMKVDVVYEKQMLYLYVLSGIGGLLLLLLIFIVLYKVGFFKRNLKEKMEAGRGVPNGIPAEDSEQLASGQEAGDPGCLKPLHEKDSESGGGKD
T2 sequence (P05107 23-769): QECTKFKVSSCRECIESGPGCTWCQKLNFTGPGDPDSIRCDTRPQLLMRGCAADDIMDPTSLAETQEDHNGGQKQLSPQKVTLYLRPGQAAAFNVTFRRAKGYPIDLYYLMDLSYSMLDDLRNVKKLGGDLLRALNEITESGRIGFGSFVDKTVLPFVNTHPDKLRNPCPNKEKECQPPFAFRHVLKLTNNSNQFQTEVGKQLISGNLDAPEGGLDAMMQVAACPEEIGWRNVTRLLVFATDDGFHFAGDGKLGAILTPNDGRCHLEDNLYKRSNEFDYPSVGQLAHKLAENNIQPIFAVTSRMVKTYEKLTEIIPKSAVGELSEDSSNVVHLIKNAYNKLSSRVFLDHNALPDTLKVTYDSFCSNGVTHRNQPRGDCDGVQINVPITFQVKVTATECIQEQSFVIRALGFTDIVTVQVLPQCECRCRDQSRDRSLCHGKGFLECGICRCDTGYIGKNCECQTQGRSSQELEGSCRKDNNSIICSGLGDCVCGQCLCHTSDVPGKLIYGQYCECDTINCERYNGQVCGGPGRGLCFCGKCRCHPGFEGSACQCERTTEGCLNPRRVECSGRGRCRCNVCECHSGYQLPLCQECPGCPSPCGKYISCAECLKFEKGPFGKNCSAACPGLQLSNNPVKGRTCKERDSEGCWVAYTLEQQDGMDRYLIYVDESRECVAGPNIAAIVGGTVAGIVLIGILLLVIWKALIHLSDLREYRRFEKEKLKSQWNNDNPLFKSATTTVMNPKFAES

| SMILES | Group against VCAM (α4β1/VCAM-1) | LAD Raw Fluorescence Units against LFA-1; Dose 3 µM; Ratio of raw counts Compound/THI0349 (αLβ2/ICAM-1) | EC50 (α4β1/VCAM-1) |
| --- | --- | --- | --- |
| CCOC(=O)c1ccc(N(Cc2cccc(OC)c2)Cc2cccc(OC)c2)cc1 [Compound 85, ethyl 4-(bis(3-methoxybenzyl)amino)benzoate] | III (Group III more than five times the EC50 of THI0349) | 0.03 | – |
| COc1cccc(CN(Cc2cccc(OC)c2)c2nc(COCCN3CCOCC3)co2)c1 [Compound 87, N,N-bis(3-methoxybenzyl)-4-((2-morpholinoethoxy)methyl)oxazol-2-amine] | I (Group I maintains at least the same potency or better up to more than twice that of the EC50 of THI0349 ran on the same plate) | 0.2 | – |
| COc1cccc(CN(Cc2cccc(OC)c2)c2nc(COCCOc3ccc(Cl)cc3)cs2)c1 [Compound 49, 4-((2-(4-chlorophenoxy)ethoxy)methyl)-N,N-bis(3-methoxybenzyl)thiazol-2-amine] | II (Group II is more than twice that of THI0349 but less than five times THI0349's EC50) | 0.63 | – |
| COc1ccc(CCc2csc(N(Cc3cccc(OC)c3)Cc3cccc(OC)c3)n2)cc1 [Compound 71, N,N-bis(3-methoxybenzyl)-4-(4-methoxyphenethyl)thiazol-2-amine] | III (Group III more than five times the EC50 of THI0349) | 0.1 | – |
| COc1ccc(CCNC(=O)c2coc(N(Cc3cccc(OC)c3)Cc3cccc(OC)c3)n2)cc1 [Compound 19, 2-(bis(3-methoxybenzyl)amino)-N-(4-methoxyphenethyl)oxazole-4-carboxamide] | II (Group II is more than twice that of THI0349 but less than five times THI0349's EC50) | 0.12 | – |
| COc1cccc(COCc2csc(N(Cc3ccc(-n4cccn4)cc3)Cc3cccc(OC)c3)n2)c1 [Compound 104, N-(4-(1H-pyrazol-1-yl)benzyl)-N-(3-methoxybenzyl)-4-((3-methoxybenzyloxy)methyl)thiazol-2-amine] | I (Group I maintains at least the same potency or better up to more than twice that of the EC50 of THI0349 ran on the same plate) | 0.28 | – |
| COc1cccc(CN(Cc2cccc(OC)c2)c2nc(COCCOc3cccc(C#N)c3)cs2)c1 [Compound 50, 3-(2-((2-(bis(3-methoxybenzyl)amino)thiazol-4-yl)methoxy)ethoxy)benzonitrile] | III (Group III more than five times the EC50 of THI0349) | 1.2 | – |
| CCOC(=O)c1csc(N(C)Cc2cccc(OC)c2)n1 [Compound 106, ethyl 2-((3-methoxybenzyl)(methyl)amino)thiazole-4-carboxylate] | III (Group III more than five times the EC50 of THI0349) | 0.05 | – |
| CCOC(=O)c1coc(N(Cc2ccc(OC)cc2)Cc2ccc(OC)cc2)n1 [Compound 15, ethyl 2-(bis(4-methoxybenzyl)amino)oxazole-4-carboxylate] | III (Group III more than five times the EC50 of THI0349) | 0.52 | – |
| COc1cccc(CN(Cc2cccc(-n3cccn3)c2)c2nc(CN3CCOCC3)cs2)c1 [Compound 80, N-(3-(1H-pyrazol-1-yl)benzyl)-N-(3-methoxybenzyl)-4-(morpholinomethyl)thiazol-2-amine] | I (Group I maintains at least the same potency or better up to more than twice that of the EC50 of THI0349 ran on the same plate) | 0.53 | – |
| COc1cccc(CN(Cc2cccc(OC)c2)c2nc(COC3COC3)cs2)c1 [Compound 123, N,N-bis(3-methoxybenzyl)-4-((oxetan-3-yloxy)methyl)thiazol-2-amine] | II (Group II is more than twice that of THI0349 but less than five times THI0349's EC50) | – | – |
| COc1cccc(CN(Cc2cccc(OC)c2)c2nc(COCC3COC3)cs2)c1 [Compound 129, N,N-bis(3-methoxybenzyl)-4-((oxetan-3-ylmethoxy)methyl)thiazol-2-amine] | II (Group II is more than twice that of THI0349 but less than five times THI0349's EC50) | – | – |
| COc1cccc(CN(Cc2cccc(OC)c2)c2nc(CN(C)C3CCOCC3)cs2)c1 [Compound 125, N,N-bis(3-methoxybenzyl)-4-((methyl(tetrahydro-2H-pyran-4-yl)amino)methyl)thiazol-2-amine] | II (Group II is more than twice that of THI0349 but less than five times THI0349's EC50) | – | – |
| COc1cccc(CN(Cc2cccc(OC)c2)c2nc(CNC3CCOCC3)cs2)c1 [Compound 128, N,N-bis(3-methoxybenzyl)-4-((tetrahydro-2H-pyran-4-ylamino)methyl)thiazol-2-amine] | I (Group I maintains at least the same potency or better up to more than twice that of the EC50 of THI0349 ran on the same plate) | – | – |
| COc1cccc(CN(Cc2cccc(OC)c2)c2nc(COC3CCOCC3)cs2)c1 [Compound 122, N,N-bis(3-methoxybenzyl)-4-((tetrahydro-2H-pyran-4-yloxy)methyl)thiazol-2-amine] | II (Group II is more than twice that of THI0349 but less than five times THI0349's EC50) | – | – |
| COc1cccc(CN(Cc2cccc(OC)c2)c2nc(COCC3CCOCC3)cs2)c1 [Compound 124, N,N-bis(3-methoxybenzyl)-4-(((tetrahydro-2H-pyran-4-yl)methoxy)methyl)thiazol-2-amine] | II (Group II is more than twice that of THI0349 but less than five times THI0349's EC50) | – | – |
| COc1ccc(CCNC(=O)c2csc(N(Cc3cccc(OC)c3)Cc3cccc(OC)c3)n2)cc1 [Compound 21, 2-(bis(3-methoxybenzyl)amino)-N-(4-methoxyphenethyl)thiazole-4-carboxamide] | I (Group I maintains at least the same potency or better up to more than twice that of the EC50 of THI0349 ran on the same plate) | – | – |
| COc1cccc(CN(Cc2cccc(OC)c2)c2nc(COCCOC3CCOCC3)cs2)c1 [Compound 131, N,N-bis(3-methoxybenzyl)-4-((2-(tetrahydro-2H-pyran-4-yloxy)ethoxy)methyl)thiazol-2-amine] | I (Group I maintains at least the same potency or better up to more than twice that of the EC50 of THI0349 ran on the same plate) | – | – |
| COc1cccc(CN(Cc2cccc(OC)c2)c2nc(CNC3CCN(C)CC3)cs2)c1 [Compound 126, N,N-bis(3-methoxybenzyl)-4-((1-methylpiperidin-4-ylamino)methyl)thiazol-2-amine] | III (Group III more than five times the EC50 of THI0349) | – | – |
| O=C(OCCOCCOCCOC(=O)N(Cc1cccs1)Cc1cccs1)N(Cc1cccs1)Cc1cccs1 [THI0349, reference compound] | – | – | 11 µM |
| CCOC(=O)c1csc(N(Cc2cccc(OC)c2)Cc2ccc3nc[nH]c3c2)n1 [Compound 120, ethyl 2-(((1H-benzo[d]imidazol-6-yl)methyl)(3-methoxybenzyl)amino)thiazole-4-carboxylate] | III (Group III more than five times the EC50 of THI0349) | – | – |
| COc1cccc(CN(Cc2cccc(OC)c2)c2nc(CNCC3CCN(C)CC3)cs2)c1 [Compound 130, N,N-bis(3-methoxybenzyl)-4-(((1-methylpiperidin-4-yl)methylamino)methyl)thiazol-2-amine] | III (Group III more than five times the EC50 of THI0349) | – | – |
| CCCC[C@@H](COC(=O)N(Cc1cccs1)Cc1cccs1)NC(=O)N[C@@H](CC(=O)OC)c1ccc2c(c1)OCO2 [THI0019, reference compound] | – | – | 33 µM |
